Data from ChEMBL document CHEMBL1151143, “Repin, a sesquiterpene lactone from Acroptilon repens possessing exceptional biological activity” (1990).
The source made the active and inactive calls. The calls are words filed in the database; no cut-off is given here.

Tests used:
Neuron [1] = test: Inhibition of NGF-stimulated extension of neural processes in chick embryo neurons at 300 nM; type: functional, cell-based; settings: Gallus gallus
Neuron [2] = test: Inhibition of NGF-stimulated extension of neural processes in chick embryo neurons at 80 nM; type: functional; settings: Gallus gallus

Structure (SMILES) | Activity (Neuron [1]) | inhibition at 0.08 µM (Neuron [2]) [%]
C=C1C(=O)O[C@H]2[C@H]1[C@@H](OC(=O)[C@@]1(C)CO1)CC(=C)[C@@H]1C[C@H](O)[C@]3(CO3)[C@H]21 | Active | –
C=C1C(=O)O[C@H]2[C@H]1[C@@H](OC(=O)[C@]1(C)CO1)CC(=C)[C@@H]1C[C@H](O)[C@]3(CO3)[C@H]21 [REPIN] | – | 50
